Values of other authors as cited in article PMC9056484 (Advances in Therapy, 2022).
Where two headings read alike, the source gives them in different places. One block for each compound: values may come before it.

Key:
[1] = test system: MAO-B
[2] = test system: early Parkinson's disease patients
[3] = test system: early PD patients; conditions: higher doses of pramipexole in early PD
[4] = test system: early Parkinson's disease patients; conditions: pramipexole 1.5 mg/day, 9 months
[5] = test system: early PD patients
[6] = test system: Parkinson's disease patients; conditions: pramipexole monotherapy
[7] = not given; remark: listed apart in the source
[8] = test system: D1 receptors
[9] = test system: early Parkinson disease patients
[10] = target: dopamine D3 receptor; conditions: read-out: Ki, D3 receptor
[11] = test system: Parkinson's disease patients; conditions: for effects on clinical progression (in words): delayed-start design trial
[12] = test system: human albumin; conditions: concentration range 1–100 ng/ml
[13] = not given; remark: listed apart in the source
[14] = test system: early Parkinson disease patients; conditions: rasagiline 1 mg/day, Week 26
[15] = Pramipexole 0.5 mg BID, n = 81, PRAMI-BID
[16] = Pramipexole 0.5 mg TID, n = 80, PRAMI-BID
[17] = Pramipexole 0.75 mg BID, n = 73, PRAMI-BID
[18] = Pramipexole 1.5 mg, n = 54, STEP-UP
[19] = Pramipexole groups combined (1.5–6 mg), N = 213, STEP-UP

SMILES: NC1CCc2ccccc21 (centres unmarked) [1-aminoindan]
MAO-B inhibition (in words) [1]: weak MAO-B inhibitor

placebo-adjusted changes from baseline in ESS score [3]: 1.0–2.1
patients with hallucinations ([5]; pramipexole up to 4.5 mg/day, early PD pivotal trials): 16.5%
absolute oral bioavailability: > 90%
absorbed dose eliminated unchanged (almost exclusively by the kidneys): > 90%
protein bound [7]: < 20%
affinity for D1 receptors, times lower than that to D3 receptors [8]: around 200,000 times
patients with hallucinations ([9]; pramipexole 1.5 mg, within 10 weeks): > 5%
Ki [10]: 0.5 nM
SMILES: CCCN[C@H]1CCc2nc(N)sc2C1 [Pramipexole]
Adverse event: Abnormal dreams [2, 15]: 3 (3.7)
Adverse event: Constipation [2, 15]: 8 (9.9)
Adverse event: Dizziness [2, 15]: 9 (11.1)
Adverse event: Fatigue [2, 15]: 6 (7.4)
Adverse event: Headache [2, 15]: 7 (8.6)
Adverse event: Insomnia [2, 15]: 3 (3.7)
Adverse event: Nausea [2, 15]: 18 (22.2)
Adverse event: Peripheral edema [2, 15]: 2 (2.5)
Adverse event: Somnolence [2, 15]: 14 (17.3)
Adverse event: Abnormal dreams [2, 16]: 5 (6.3)
Adverse event: Constipation [2, 16]: 5 (6.3)
Adverse event: Dizziness [2, 16]: 9 (11.3)
Adverse event: Fatigue [2, 16]: 4 (5.0)
Adverse event: Headache [2, 16]: 4 (5.0)
Adverse event: Insomnia [2, 16]: 6 (7.5)
Adverse event: Nausea [2, 16]: 15 (18.8)
Adverse event: Peripheral edema [2, 16]: 3 (3.8)
Adverse event: Somnolence [2, 16]: 20 (25.0)
Adverse event: Abnormal dreams [2, 17]: 2 (2.7)
Adverse event: Constipation [2, 17]: 7 (9.6)
Adverse event: Dizziness [2, 17]: 5 (6.8)
Adverse event: Fatigue [2, 17]: 7 (9.6)
Adverse event: Headache [2, 17]: 6 (8.2)
Adverse event: Insomnia [2, 17]: 11 (15.1)
Adverse event: Nausea [2, 17]: 11 (15.1)
Adverse event: Peripheral edema [2, 17]: 4 (5.5)
Adverse event: Somnolence [2, 17]: 16 (21.9)
Effects on PDQ-39 Total scores versus placebo (in words) ([2]; pramipexole 1.0 mg/day (0.5 mg BID), P = 0.32): not significantly different from placebo
PDQ-39 Total scores, treatment effect vs. placebo ([2]; pramipexole 1.5 mg/day (0.75 mg BID or 0.5 mg TID), P ≤ 0.05): 2.1 points
placebo-adjusted improvements in Total UPDRS ([2]; pramipexole 1–1.5 mg/day, Week 12): 4.4–4.7 points
improvement of Total UPDRS scores versus placebo [4]: 4.8 points
incidence of somnolence ([5]; pramipexole pivotal studies in early PD): 22%
disease-modifying effect (in words) [6]: did not find evidence of a disease-modifying effect
Adverse event: Confusion [9, 18]: 3 (5.6)
Adverse event: Constipation [9, 18]: 4 (7.4)
Adverse event: Dizziness [9, 18]: 10 (18.5)
Adverse event: Fatigue [9, 18]: 4 (7.4)
Adverse event: Hallucination [9, 18]: 4 (7.4)
Adverse event: Headache [9, 18]: 5 (9.2)
Adverse event: Insomnia [9, 18]: 2 (3.7)
Adverse event: Nausea [9, 18]: 9 (16.7)
Adverse event: Somnolence [9, 18]: 9 (16.7)
Adverse event: Confusion [9, 19]: 9 (4.2)
Adverse event: Constipation [9, 19]: 23 (10.8)
Adverse event: Dizziness [9, 19]: 39 (18.3)
Adverse event: Hallucination [9, 19]: 14 (6.6)
Adverse event: Headache [9, 19]: 24 (11.3)
Adverse event: Insomnia [9, 19]: 16 (7.5)
Adverse event: Nausea [9, 19]: 42 (19.7)
Adverse event: Somnolence [9, 19]: 58 (27.2)
improvement of Total UPDRS scores versus placebo ([9]; pramipexole 1.5 mg/day, Week 10): 5.2 points

mean extent of binding to human albumin [12]: 61–63%
absolute bioavailability [13]: about 36%
time to peak plasma concentration (Cmax) [13]: approximately 1 hour
SMILES: C#CCN[C@@H]1CCc2ccccc21 [Rasagiline, N-propargyl-1-(R)-aminoindan]
effects on clinical progression (in words) ([11]; rasagiline 1.0 mg): statistically significant effects on clinical progression
improvement of Total UPDRS scores versus placebo ([11]; rasagiline 1 mg/day, ~ Week 36): 3.0 points
effects on clinical progression (in words) ([11]; rasagiline 2.0 mg): but not 2.0 mg, had statistically significant effects
MAO-B inhibition (in words) [1]: potent and irreversible inhibitor of MAO-B
improvement of Total UPDRS scores versus placebo [14]: 4.2 points
